Broadly, the IC50 is the concentration that gives 50% inhibition.

The target in assay [1] is T1, neurokinin-1 (NK-1) receptor (Homo sapiens, UniProt P25103).
T1 construct: a human glioblastoma-astrocytoma cell line that endogenously express the neurokinin-1 (NK-1) receptor; endogenous in cells; host or cells: U373 human glioblastoma-astrocytoma cells (membranes)
Description: NK-1 binding (competition with [125I] Substance P, U373 cell membranes). The conditions noted are these: [125I] Substance P displacement. The method, then: U373 cells, a human glioblastoma-astrocytoma cell line that endogenously express the neurokinin-1 (NK-1) receptor, were grown in a monolayer culture at 37° C. in 5% CO2 and fed with Minimum Essential Medium (MEM) supplemented with 10% fetal bovine serum. Membranes were prepared as follows: Cells were washed twice with ice-cold phosphate-buffered saline (pH 7.4) and then incubated for 5 to 10 minutes with ice-cold 10 mM Tris buffer (pH 7.4) containing 5 mM EDTA. Cells were removed from plates, homogenized, and centrifuged at 32,000×g for 20 minutes. The resulting supernatant was discarded, and the pellet resuspended by homogenization in 50 mM Tris buffer (pH 7.4) containing 1 mM EDTA and centrifuged at 32,000×g for 20 minutes. The resulting supernatant was discarded, and the pellet resuspended by homogenization in NK-1 binding assay buffer (50 mM Tris-HCL (pH 7.4), 3 mM MnCl2, 200 μg/ml BSA, 5 μg/ml chymostatin, 40 μg/ml bacitracin and 4 μg/ml leupeptin).
On the day of an experiment the membrane preparation was thawed, homogenized and diluted with NK-1 binding assay buffer to the appropriate concentration. Competition binding assays were performed in 96 well plate format by incubating membranes (5-10 ug/well) with Bolton Hunter labeled [^125I] Substance P, at a concentration of […], and concentrations of drugs ranging from 10000 to 0.01 nM. Samples were incubated for 30 min at 20° C. then filtered through GF/B glass fiber filters (pretreated with 1% polyethyleneimine and 0.3% Triton X-100) using a Brandel cell harvester. The filters were then washed with 10 ml ice cold 50 mM Tris-HCL (pH 7.4) containing 3 mM MgCl2. Non-specific was defined in the presence of 2 μM L-733,060 (a non-peptide NK-1 antagonist). Amount of radioligand bound in the presence and absence of competitor was analyzed by plotting (−)log drug concentration versus the amount of radioligand specifically bound. The midpoint of the displacement curve (IC50, nM), signifies the potency. Ki values were calculated using the method of Cheng and Prusoff [Cheng, Y.-C. and Prusoff, W. H., Biochemical Pharmacology, Vol. 22, pp. 3099-3108, Pergamon Press (1973)].

Assay [2] addresses T2, human serotonin transporters (Homo sapiens, UniProt P31645).
T2 construct: expressed in transfected cells; host or cells: HEK-293 cells stably expressing hSERT (membranes)
As to the kind of experiment: Serotonin transporter binding assay ([3H]-citalopram, HEK-hSERT cell membranes). As to conditions: [3H]-citalopram displacement, read-out: SERT IC50. The method, then: HEK-293 cells that stably express human serotonin transporters (HEK-hSERT cells) were grown at 37° C. in 5% CO2 as a monolayer in medium consisting of EMEM supplemented with 10% fetal bovine serum and G418 sulfate (500 μg/ml). To prepare membranes for radioligand binding experiments, cells were rinsed twice with phosphate-buffered saline (138 mM NaCl, 4.1 mM KCl, 5.1 mM Na2PO4, 1.5 mM […], 11.1 mM glucose, pH 7.4). Cells were transferred from plates to polypropylene tubes (16×100 mm), centrifuged at 1,200×g for 5 min and were frozen at −80° C. until assay. Following centrifugation, pellets were resuspended by homogenization in buffer consisting of 50 mM Tris (pH 7.7 at 25° C.), 120 mM NaCl and 5 mM KCl and then centrifuged at 32,000×g for 10 min. Following centrifugation, supernatants were discarded and pellets were resuspended in buffer consisting of 50 mM Tris (pH 7.4 at 25° C.), 150 mM NaCl and 5 mM KCl. Membrane homogenates (200 μl/plate) were incubated with 1 nM [^3H]-citalopram (specific activity=85 Ci/mmol) and increasing concentrations of test compounds for 1 hr at 25° C. in a total volume of 250 μl. The assay buffer consisted of 50 mM Tris (pH 7.4 at 25° C.), 120 mM NaCl and 5 mM KCl (pH 7.4 with conc. HCl). Plates were incubated for 1 hr at 25° C., then filtered through 0.5% PEI treated Whatman GF/B filters using a Brandel cell harvester. Filters were washed three times with 3 ml of ice-cold tris wash buffer. Non-specific binding was defined with 10 μM fluoxetine. Amount of radioligand bound in the presence and absence of competitor was analyzed by plotting (−)log drug concentration versus the amount of radioligand specifically bound. The midpoint of the displacement curve (IC50, nM), signifies the potency. Ki values were calculated using the method of Cheng and Prusoff [Cheng, Y.-C. and Prusoff, W. H., Biochemical Pharmacology, Vol. 22, pp. 3099-3108, Pergamon Press (1973)].

T1 sequence (P25103 whole entry): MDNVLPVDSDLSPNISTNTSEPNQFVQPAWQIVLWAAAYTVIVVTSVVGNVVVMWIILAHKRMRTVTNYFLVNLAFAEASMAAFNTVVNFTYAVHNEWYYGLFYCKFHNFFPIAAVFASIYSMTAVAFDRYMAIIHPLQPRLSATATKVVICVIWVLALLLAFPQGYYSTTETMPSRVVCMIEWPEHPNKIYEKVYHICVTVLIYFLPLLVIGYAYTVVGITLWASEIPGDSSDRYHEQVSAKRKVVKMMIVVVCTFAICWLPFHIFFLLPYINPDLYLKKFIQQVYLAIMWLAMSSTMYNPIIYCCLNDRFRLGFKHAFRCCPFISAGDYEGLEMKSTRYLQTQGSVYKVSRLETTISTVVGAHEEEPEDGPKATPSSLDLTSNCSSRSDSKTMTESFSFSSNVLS
T2 sequence (P31645 whole entry): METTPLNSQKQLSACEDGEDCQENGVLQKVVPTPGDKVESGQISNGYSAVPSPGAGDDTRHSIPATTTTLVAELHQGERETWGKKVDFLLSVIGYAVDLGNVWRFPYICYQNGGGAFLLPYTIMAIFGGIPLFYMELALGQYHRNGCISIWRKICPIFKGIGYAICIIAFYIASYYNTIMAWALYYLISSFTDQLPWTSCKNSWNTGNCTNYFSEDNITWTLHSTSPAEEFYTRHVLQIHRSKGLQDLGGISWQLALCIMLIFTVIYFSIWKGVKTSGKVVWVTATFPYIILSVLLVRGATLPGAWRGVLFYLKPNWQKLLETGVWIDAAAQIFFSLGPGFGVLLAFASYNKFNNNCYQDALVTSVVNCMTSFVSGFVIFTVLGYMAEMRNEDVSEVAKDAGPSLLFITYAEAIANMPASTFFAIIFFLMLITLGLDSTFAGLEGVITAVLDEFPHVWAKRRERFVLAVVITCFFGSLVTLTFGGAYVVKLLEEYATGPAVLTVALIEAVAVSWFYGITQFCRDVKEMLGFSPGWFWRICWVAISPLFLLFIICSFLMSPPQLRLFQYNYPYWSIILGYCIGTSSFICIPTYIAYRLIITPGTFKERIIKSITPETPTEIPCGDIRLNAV

In assay [1], `FC(F)(F)c1cc(COCC2(c3ccccc3)CCC(N3CCCCC3)C2)cc(C(F)(F)F)c1` (stereo not drawn) [Example 1, 1-(3-((3,5-Bis(trifluoromethyl)benzyloxy)methyl)-3-phenylcyclopentyl)piperidine] registered an IC50 below 20 nM.

In assay [1], `FC(F)(F)c1cc(COCC2(c3ccccc3)CCC(N3CCCC3)C2)cc(C(F)(F)F)c1` (stereo not drawn) [Example 2, 1-(3-((3,5-Bis(trifluoromethyl)benzyloxy)methyl)-3-phenylcyclopentyl)pyrrolidine] came in with an IC50 below 20 nM.

`FC(F)(F)c1cc(COCC2(c3ccccc3)CCC(N3CCOCC3)C2)cc(C(F)(F)F)c1` (stereo not drawn) [Example 3, 4-(3-((3,5-bis(trifluoromethyl)benzyloxy)methyl)-3-phenylcyclopentyl)morpholine]: the IC50 in assay [1] was 20 to 100 nM.

In assay [1], `FC(F)(F)c1cc(COCC2(c3ccccc3)CCC(NC3CC3)C2)cc(C(F)(F)F)c1` (stereo not drawn) [Example 4, 3-((3,5-Bis(trifluoromethyl)benzyloxy)methyl)-N-cyclopropyl-3-phenylcyclopentanamine] displayed an IC50 below 20 nM.

Regarding `COCCN(C)C1CCC(COCc2cc(C(F)(F)F)cc(C(F)(F)F)c2)(c2ccccc2)C1` (stereo not drawn) [Example 5, 3-((3,5-bis(trifluoromethyl)benzyloxy)methyl)-N-(2-methoxyethyl)-N-methyl-3-phenylcyclopentanamine], in assay [1], the IC50 was below 20 nM.

`CN(C)C1CCC(COCc2cc(C(F)(F)F)cc(C(F)(F)F)c2)(c2ccccc2)C1` (stereo not drawn) [Example 6, 3-((3,5-bis(trifluoromethyl)benzyloxy)methyl)-N,N-dimethyl-3-phenylcyclopentanamine]: the IC50 in assay [2] was 20 to 100 nM; in assay [1] it was below 20 nM.

Consider `N[C@H]1CC[C@](COCc2cc(C(F)(F)F)cc(C(F)(F)F)c2)(c2ccccc2)C1` [Example 7, (1S,3R)-3-((3,5-bis(trifluoromethyl)benzyloxy)methyl)-3-phenylcyclopentanamine], for which the results for the IC50 in assay [2] and in assay [1] were 20 to 100 nM and below 20 nM, respectively.

For `N[C@@H]1CC[C@@](COCc2cc(C(F)(F)F)cc(C(F)(F)F)c2)(c2ccccc2)C1` [Example 8, (1R,3S)-3-((3,5-bis(trifluoromethyl)benzyloxy)methyl)-3-phenylcyclopentanamine], the values for the IC50 in assay [2] and in assay [1] were 100 to 300 nM and below 20 nM, respectively.

Take `N[C@@H]1CC[C@](COCc2cc(C(F)(F)F)cc(C(F)(F)F)c2)(c2ccccc2)C1` [Example 9, (1R,3R)-3-((3,5-bis(trifluoromethyl)benzyloxy)methyl)-3-phenylcyclopentanamine]: the IC50 in assay [2] is 20 to 100 nM; in assay [1] it was below 20 nM.

Take `N[C@H]1CC[C@@](COCc2cc(C(F)(F)F)cc(C(F)(F)F)c2)(c2ccccc2)C1` [Example 10, (1S,3S)-3-((3,5-bis(trifluoromethyl)benzyloxy)methyl)-3-phenylcyclopentanamine]: the IC50 in assay [2] and in assay [1] was below 20 nM in each case.

As to `CNC1CCCC(COCc2cc(C(F)(F)F)cc(C(F)(F)F)c2)(c2ccccc2)C1` (stereo not drawn) [Example 11, 3-((3,5-bis(trifluoromethyl)benzyloxy)methyl)-N-methyl-3-phenylcyclohexanamine], the results for the IC50 in assay [2] and in assay [1] were 100 to 300 nM and below 20 nM, respectively.

Compound `CN(C)C1CCCC(COCc2cc(C(F)(F)F)cc(C(F)(F)F)c2)(c2ccccc2)C1` (stereo not drawn) [Example 12, 3-((3,5-bis(trifluoromethyl)benzyloxy)methyl)-N,N-dimethyl-3-phenylcyclohexanamine] showed a half-inhibitory concentration (IC50) in assay [1] of 100 to 300 nM.

For the compound `CCN(CC)C1CCCC(COCc2cc(C(F)(F)F)cc(C(F)(F)F)c2)(c2ccccc2)C1` (stereo not drawn) [Example 13, 3-((3,5-bis(trifluoromethyl)benzyloxy)methyl)-N,N-diethyl-3-phenylcyclohexanamine], the IC50 in assay [2] is 100 to 300 nM; in assay [1] it was 20 to 100 nM.

For the compound `CCNC1CCCC(COCc2cc(C(F)(F)F)cc(C(F)(F)F)c2)(c2ccccc2)C1` (stereo not drawn) [Example 14, 3-((3,5-bis(trifluoromethyl)benzyloxy)methyl)-N-ethyl-3-phenylcyclohexanamine], the results for the IC50 in assay [2] and in assay [1] were 100 to 300 nM and below 20 nM, respectively.

Regarding `FC(F)(F)c1cc(COCC2(c3ccccc3)CCCC(NC3CC3)C2)cc(C(F)(F)F)c1` (stereo not drawn) [Example 15, 3-((3,5-bis(trifluoromethyl)benzyloxy)methyl)-N-cyclopropyl-3-phenylcyclohexanamine], the IC50 in assay [1] fell in the range of 20 to 100 nM.

For `FC(F)(F)c1cc(COCC2(c3ccccc3)CCCC(N3CCOCC3)C2)cc(C(F)(F)F)c1` (stereo not drawn) [Example 16, 4-(3-((3,5-bis(trifluoromethyl)benzyloxy)methyl)-3-phenylcyclohexyl)morpholine], the IC50 in assay [1] is 100 to 300 nM.

On to `FC(F)(F)c1cc(COCC2(c3ccccc3)CCCC(N3CCCC3)C2)cc(C(F)(F)F)c1` (stereo not drawn) [Example 17, 1-(3-((3,5-bis(trifluoromethyl)benzyloxy)methyl)-3-phenylcyclohexyl)pyrrolidine], for which the IC50 in assay [1] fell in the range of 100 to 300 nM.

`FC(F)(F)c1cc(COCC2(c3ccccc3)CCCC(N3CCCCC3)C2)cc(C(F)(F)F)c1` (stereo not drawn) [Example 18, 1-(3-((3,5-bis(trifluoromethyl)benzyloxy)methyl)-3-phenylcyclohexyl)piperidine]: the IC50 in assay [1] lay in the range of 20 to 100 nM.

Regarding `CN1CCN(C2CCCC(COCc3cc(C(F)(F)F)cc(C(F)(F)F)c3)(c3ccccc3)C2)CC1` (stereo not drawn) [Example 19, 1-(3-((3,5-bis(trifluoromethyl)benzyloxy)methyl)-3-phenylcyclohexyl)-4-methylpiperazine], the IC50 in assay [1] was 100 to 300 nM.

Source of the values: patent US7276631B2, “Cyclopentylamine and cyclohexylamine derivatives as NK-1/SSRI antagonists” (Bristol-Myers Squibb Company, priority 2004, dated 2007).
